Measurements as given in patent US9415021B2, “Synthesis of oxygen carrying, turbulence resistant, high density submicron particulates” (Nanoshell Company, LLC, priority 2009, dated 2016).

Experiment: Oxygen content of suspensions by glucose assay solution (glucose oxidase/peroxidase, absorbance at 540 nm) and Equation 1
Format: physicochemical
Details: 37° C., 1 AP
Procedure: To confirm the oxygen carrying capability of the single coated nanoemulsion particle AOCs, the amount of dissolved oxygen in water was measured. The linear dependence of the absorbance at 540 nm in response to the concentration of glucose was first confirmed at 37° C. in the presence of sufficient amount of oxygen, and then the limiting amount of oxygen concentration was estimated in the presence of sufficient amount of glucose. […] The DI water was added to make the total volume 1.41 μl and the absorbance determined at 540 nm. The absorbance was plotted against the molar concentration of dissolved oxygen assuming that the air at 1 AP and 37° C., water contains 215.6 μmol/L of O2. The experimentally determined oxygen content in the coated AOC suspension is a composite of oxygen content in water and in the perfluorocarbon. Quantitatively, CO2 total=CO2 PFC VPFC+CO2 water Vwater=CO2 PFC VPFC+CO2 water(1−VPFC) (Equation 1) where, CO2 total is the total oxygen concentration of the sample, and CO2 PFC and CO2 water are the concentrations of oxygen in PFC and water at a given partial pressure of oxygen and temperature, and similarly V's are the volume fractions of PFC and water. […] The reaction was allowed to proceed for 30 minutes at 37° C. and the absorption was measured at 540 nm in order to estimate the amount of oxygen present in the uncoated and coated products.

FC(F)(F)C(F)(F)C(F)(F)C(F)(F)C(F)(F)C(F)(F)C(F)(F)C(F)(F)Br [emulsified PFOB, perfluorooctylbromide]
oxygen content, estimated CSAT: 3,640 μmol/L
